Patent publication US10508104B2, “6-hydroxy-5-(phenyl/heteroarylsulfonyl)pyrimidin-4(1H)-one as APJ agonists” (Bristol-Myers Squibb Company, priority 2016, dated 2019)

Target: human APJ receptor (Homo sapiens (Human), UniProt P35414)
Assay: Intracellular cAMP accumulation assay (APJ hcAMP, HTRF)
Type: cell-based
Conditions: human APJ, cAMP accumulation; read-out: Human APJ cAMP EC50 Potency range
Procedure, shortened: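 HEK293 cells stably expressing human APJ, 5,000 per well, incubated 30 min at rt with compound, […] and 2 μM forskolin. cAMP measured by HTRF against a cAMP standard curve as inhibition of forskolin-driven production. EC50 from variable-slope sigmoidal fit.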

Sequence of human APJ receptor (P35414 whole entry): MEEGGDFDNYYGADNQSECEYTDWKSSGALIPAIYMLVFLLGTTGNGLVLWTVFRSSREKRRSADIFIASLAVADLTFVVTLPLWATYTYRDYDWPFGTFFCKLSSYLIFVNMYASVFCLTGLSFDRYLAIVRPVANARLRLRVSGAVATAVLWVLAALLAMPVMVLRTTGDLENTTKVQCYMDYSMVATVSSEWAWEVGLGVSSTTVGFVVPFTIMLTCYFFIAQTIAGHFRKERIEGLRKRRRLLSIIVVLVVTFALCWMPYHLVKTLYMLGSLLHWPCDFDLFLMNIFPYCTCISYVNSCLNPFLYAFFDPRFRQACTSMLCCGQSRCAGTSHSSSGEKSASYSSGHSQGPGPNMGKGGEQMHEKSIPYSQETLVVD

| Structure (SMILES) | EC50 [nM] |
| --- | --- |
| CCCCc1nc(=O)c(S(=O)(=O)c2ccc(-c3cnc(C)nc3)cc2)c(O)n1[C@@H](CC)c1ccccc1 [Example 292, 2-butyl-6-hydroxy-5-[4-(2-methylpyrimidin-5-yl)benzenesulfonyl]-1-[(1S)-1-phenylpropyl]-1,4-dihydropyrimidin-4-one] | 10 to 100 |
| CCCCc1nc(=O)c(S(=O)(=O)c2ccc(-c3cncc(C)c3)cc2)c(O)n1[C@@H](CC)c1ccccc1 [Example 293, 2-butyl-6-hydroxy-5-[4-(5-methylpyridin-3-yl)benzenesulfonyl]-1-[(1S)-1-phenylpropyl]-1,4-dihydropyrimidin-4-one] | 0.01 to 10 |
| COC[C@@H](c1ccccc1)n1c(COC(C)C)nc(=O)c(S(=O)(=O)c2ccc(Br)c(F)c2)c1O [Example 294, 5-(4-bromo-3-fluorobenzenesulfonyl)-6-hydroxy-1-[(1R)-2-methoxy-1-phenylethyl]-2-[(propan-2-yloxy)methyl]-1,4-dihydropyrimidin-4-one] | 0.01 to 10 |
| COC[C@@H](c1ccccc1)n1c(COC(C)C)nc(=O)c(S(=O)(=O)c2ccc(Br)cc2)c1O [Example 295, 5-(4-bromobenzenesulfonyl)-6-hydroxy-1-[(1R)-2-methoxy-1-phenylethyl]-2-[(propan-2-yloxy)methyl]-1,4-dihydropyrimidin-4-one] | 10 to 100 |
| CCOCc1nc(=O)c(S(=O)(=O)c2ccc(Br)cc2)c(O)n1[C@@H](COC)c1ccccc1 [Example 296, 5-(4-bromobenzenesulfonyl)-2-(ethoxymethyl)-6-hydroxy-1-[(1R)-2-methoxy-1-phenylethyl]-1,4-dihydropyrimidin-4-one] | 100 to 300 |
| CCOCc1nc(=O)c(S(=O)(=O)c2ccc(Br)cc2)c(O)n1[C@H]1CCc2ccccc21 [Example 297, 5-(4-bromobenzenesulfonyl)-1-[(1S)-2,3-dihydro-1H-inden-1-yl]-2-(ethoxymethyl)-6-hydroxy-1,4-dihydropyrimidin-4-one] | 10 to 100 |
| CCOCc1nc(=O)c(S(=O)(=O)c2ccc(Br)c(F)c2)c(O)n1C(COC)c1cccc(F)c1 (centres unmarked) [Example 298, 5-(4-bromo-3-fluorobenzenesulfonyl)-2-(ethoxymethyl)-1-[1-(3-fluorophenyl)-2-methoxyethyl]-6-hydroxy-1,4-dihydropyrimidin-4-one] | 0.01 to 10 |
| CC(C)OCc1nc(=O)c(S(=O)(=O)c2ccc(Br)cc2)c(O)n1[C@H]1CCc2ccccc21 [Example 299, 5-(4-bromobenzenesulfonyl)-1-[(1S)-2,3-dihydro-1H-inden-1-yl]-6-hydroxy-2-[(propan-2-yloxy)methyl]-1,4-dihydropyrimidin-4-one] | 10 to 100 |
| CCOCc1nc(=O)c(S(=O)(=O)c2ccc(Br)c(F)c2)c(O)n1[C@@H](COC)c1ccccc1 [Example 300, 5-(4-bromo-3-fluorobenzenesulfonyl)-2-(ethoxymethyl)-6-hydroxy-1-[(1R)-2-methoxy-1-phenylethyl]-1,4-dihydropyrimidin-4-one] | 0.01 to 10 |
| CCOCc1nc(=O)c(S(=O)(=O)c2ccc(Br)c(F)c2)c(O)n1[C@@H](COC)c1cccc(C#N)c1 [Example 301, 3-[(1R)-1-[5-(4-bromo-3-fluorobenzenesulfonyl)-2-(ethoxymethyl)-6-hydroxy-4-oxo-1,4-dihydropyrimidin-1-yl]-2-methoxyethyl] benzonitrile] | 0.01 to 10 |
| CCCCc1nc(=O)c(S(=O)(=O)c2ccc(Br)cc2)c(O)n1[C@@H](CC)c1cccc(C#N)c1 [Example 302, 3-[(1S)-1-[5-(4-bromobenzenesulfonyl)-2-butyl-4-hydroxy-6-oxo-1,6-dihydropyrimidin-1-yl]propyl]benzonitrile] | 0.01 to 10 |
| CCOCc1nc(=O)c(S(=O)(=O)c2ccc(C3CC3)cc2)c(O)n1[C@H]1CCc2ccccc21 [Example 303, 5-(4-cyclopropylbenzene-sulfonyl)-1-[(1S)-2,3-dihydro-1H-inden-1-yl]-2-(ethoxymethyl)-6-hydroxy-1,4-dihydropyrimidin-4-one] | 0.01 to 10 |
| COC[C@@H](c1ccccc1)n1c(COC(C)C)nc(=O)c(S(=O)(=O)c2ccc(-c3ccc(F)nc3C)c(F)c2)c1O [Example 304, 5-[3-fluoro-4-(6-fluoro-2-methylpyridin-3-yl)benzenesulfonyl]-6-hydroxy-1-[(1R)-2-methoxy-1-phenylethyl]-2-[(propan-2-yloxy)methyl]-1,4-dihydropyrimidin-4-one] | 0.01 to 10 |
| CCOCc1nc(=O)c(S(=O)(=O)c2ccc(-c3ccc(F)nc3)cc2)c(O)n1[C@@H](CC)c1ccccc1 [Example 305, 2-(ethoxymethyl)-5-[4-(6-fluoropyridin-3-yl)benzenesulfonyl]-6-hydroxy-1-[(1S)-1-phenylpropyl]-1,4-dihydropyrimidin-4-one] | 0.01 to 10 |
| CCOCc1nc(=O)c(S(=O)(=O)c2ccc(-c3ccncc3C)cc2)c(O)n1[C@@H](CC)c1ccccc1 [Example 306, 2-(ethoxymethyl)-6-hydroxy-5-[4-(3-methylpyridin-4-yl)benzenesulfonyl]-1-[(1S)-1-phenylpropyl]-1,4-dihydropyrimidin-4-one] | 0.01 to 10 |
| CCOCc1nc(=O)c(S(=O)(=O)c2ccc(-c3ccnc(F)c3C)cc2)c(O)n1[C@@H](CC)c1ccccc1 [Example 307, 2-(ethoxymethyl)-5-[4-(2-fluoro-3-methylpyridin-4-yl)benzenesulfonyl]-6-hydroxy-1-[(1S)-1-phenylpropyl]-1,4-dihydropyrimidin-4-one] | 0.01 to 10 |
| CCOCc1nc(=O)c(S(=O)(=O)c2ccc(-c3ccc(F)nc3C)cc2)c(O)n1[C@@H](CC)c1ccccc1 [Example 308, 2-(ethoxymethyl)-5-[4-(6-fluoro-2-methylpyridin-3-yl)benzenesulfonyl]-6-hydroxy-1-[(1S)-1-phenylpropyl]-1,4-dihydropyrimidin-4-one] | 0.01 to 10 |
| CCOCc1nc(=O)c(S(=O)(=O)c2ccc(-c3ccc(OC)nc3C)cc2)c(O)n1[C@@H](CC)c1ccccc1 [Example 309, 2-(ethoxymethyl)-6-hydroxy-5-[4-(6-methoxy-2-methylpyridin-3-yl)benzenesulfonyl]-1-[(1S)-1-phenylpropyl]-1,4-dihydropyrimidin-4-one] | 0.01 to 10 |
| CCOCc1nc(=O)c(S(=O)(=O)c2ccc(-c3cccnc3C)cc2)c(O)n1[C@@H](CC)c1ccccc1 [Example 310, 2-(ethoxymethyl)-6-hydroxy-5-[4-(2-methylpyridin-3-yl)benzenesulfonyl]-1-[(1S)-1-phenylpropyl]-1,4-dihydropyrimidin-4-one] | 0.01 to 10 |
| CC[C@@H](c1ccccc1)n1c(COC(C)C)nc(=O)c(S(=O)(=O)c2ccc(-c3ccc(F)nc3C)cc2)c1O [Example 311, 5-[4-(6-fluoro-2-methylpyridin-3-yl)benzenesulfonyl]-6-hydroxy-1-[(1S)-1-phenylpropyl]-2-[(propan-2-yloxy)methyl]-1,4-dihydropyrimidin-4-one] | 0.01 to 10 |
| CC[C@@H](c1ccccc1)n1c(COC(C)C)nc(=O)c(S(=O)(=O)c2ccc(-c3ccnc(F)c3C)cc2)c1O [Example 312, 5-[4-(2-fluoro-3-methylpyridin-4-yl)benzenesulfonyl]-6-hydroxy-1-[(1S)-1-phenylpropyl]-2-[(propan-2-yloxy)methyl]-1,4-dihydropyrimidin-4-one] | 0.01 to 10 |
| CC[C@@H](c1ccccc1)n1c(COC(C)C)nc(=O)c(S(=O)(=O)c2ccc(-c3cccnc3C)cc2)c1O [Example 313, 6-hydroxy-5-[4-(2-methylpyridin-3-yl)benzenesulfonyl]-1-[(1S)-1-phenylpropyl]-2-[(propan-2-yloxy)methyl]-1,4-dihydropyrimidin-4-one] | 0.01 to 10 |
| CC[C@@H](c1ccccc1)n1c(COC(C)C)nc(=O)c(S(=O)(=O)c2ccc(-c3ccncc3C)cc2)c1O [Example 314, 6-hydroxy-5-[4-(3-methylpyridin-4-yl)benzenesulfonyl]-1-[(1S)-1-phenylpropyl]-2-[(propan-2-yloxy)methyl]-1,4-dihydropyrimidin-4-one] | 0.01 to 10 |
| CCOCc1nc(=O)c(S(=O)(=O)c2ccc(-c3ccncc3C)cc2)c(O)n1[C@@H](COC)c1ccccc1 [Example 315, 2-(ethoxymethyl)-6-hydroxy-1-[(1R)-2-methoxy-1-phenylethyl]-5-[4-(3-methylpyridin-4-yl)benzenesulfonyl]-1,4-dihydropyrimidin-4-one] | 0.01 to 10 |
| CCOCc1nc(=O)c(S(=O)(=O)c2ccc(-c3ccnc(F)c3C)cc2)c(O)n1[C@@H](COC)c1ccccc1 [Example 316, 2-(ethoxymethyl)-5-[4-(2-fluoro-3-methylpyridin-4-yl)benzenesulfonyl]-6-hydroxy-1-[(1R)-2-methoxy-1-phenylethyl]-1,4-dihydropyrimidin-4-one] | 0.01 to 10 |
| CCOCc1nc(=O)c(S(=O)(=O)c2ccc(-c3ccc(F)nc3)cc2)c(O)n1[C@@H](COC)c1ccccc1 [Example 317, 2-(ethoxymethyl)-5-[4 (6-fluoropyridin-3-yl)benzenesulfonyl]-6-hydroxy-1-[(1R)-2-methoxy-1-phenylethyl]-1,4-dihydropyrimidin-4-one] | 10 to 100 |
| CCOCc1nc(=O)c(S(=O)(=O)c2ccc(-c3ccc(F)nc3C)cc2)c(O)n1[C@@H](COC)c1ccccc1 [Example 318, 2-(ethoxymethyl)-5-[4-(6-fluoro-2-methylpyridin-3-yl)benzenesulfonyl]-6-hydroxy-1-[(1R)-2-methoxy-1-phenylethyl]-1,4-dihydropyrimidin-4-one] | 0.01 to 10 |
| CCOCc1nc(=O)c(S(=O)(=O)c2ccc(-c3cccnc3C)cc2)c(O)n1[C@H]1CCc2ccccc21 [Example 319, 1-[(1S)-2,3-dihydro-1H-inden-1-yl]-2-(ethoxymethyl)-6-hydroxy-5-[4-(2-methylpyridin-3-yl)benzenesulfonyl]-1,4-dihydropyrimidin-4-one] | 0.01 to 10 |
| Cc1nc(F)ccc1-c1ccc(S(=O)(=O)c2c(O)n([C@H]3CCc4ccccc43)c(COC(C)C)nc2=O)cc1 [Example 320, 1-[(1S)-2,3-dihydro-1H-inden-1-yl]-5-[4-(6-fluoro-2-methylpyridin-3-yl)benzenesulfonyl]-6-hydroxy-2-[(propan-2-yloxy)methyl]-1,4-dihydropyrimidin-4-one] | 0.01 to 10 |
